Assay results taken from patent US4359531A, “Production of isomaltulose” (Talres Development (N.A.) N.V., priority 1979, dated 1982).

System: isomaltulose-synthesising activity of the immobilized cells
Experiment: Effect of chloramphenicol in the sucrose substrate on immobilized cells
Assay type: cell-based, Erwinia rhapontici
Settings: 0.1 g/l in 55% (w/v) sucrose
Source text: This hypothesis was confirmed when 0.1 g/l of chloramphenicol, which inhibits protein synthesis, was included in the 55% (w/v) sucrose used as substrate.

SMILES: O=C(N[C@H](CO)[C@H](O)c1ccc([N+](=O)[O-])cc1)C(Cl)Cl [chloramphenicol]
- isomaltulose-synthesising activity in presence of chloramphenicol: unaffected
- cell division in presence of chloramphenicol (even when nutrients supplied): no cell division took place
